In US6001849A, “Furopyridine, thienopyridine pyrrolopyridine useful in controlling chemical synaptic transmission” (Abbott Laboratories, priority 1997, dated 1999):
Structures can show the parent of a compound that is named as a salt. Where two headings read alike, the source gives them in different places.

Legend:
[1] = tested on: neuronal nicotinic acetylcholine receptors in IMR-32 cells; experiment: 86Rb+ efflux assay in IMR-32 neuroblastoma cells; type: cell-based, human; settings: for IMR-32 % max: maximal response, percent relative to 100 μM (S)-nicotine
Description: (§1) B. Protocols for the Determination of Functional Effects of Nicotinic Acetylcholine Receptor Ligands on Synaptic Transmission
Experimental cells were seeded at a density of 500,000 cells/mL into a 24-well tissue culture dish. Plated cells were allowed to proliferate for at least 48 hours before loading with 2 μCi/mL of ^86 Rb^+ (35 Ci/mmol) overnigh at 37° C.

[2] = target: T1, α4 and β2 nicotinic acetylcholine subunits (K177 cells) (Homo sapiens, UniProt P17787+P43681); experiment: 86Rb+ efflux assay in K177 cells (HEK 293 stably transfected with α4 and β2 nicotinic acetylcholine subunits); type: cell-based
T1 construct: expressed in transfected cells
Description: as §1
Cells of the IMR-32 human neuroblastoma clonal cell line (ATCC, Rockville, Md.) were maintained in a log phase of growth according to established procedures (Lukas, R. J., J. Pharmacol. Exp. Ther., 265: 294-302, 1993). Experimental cells were seeded at a density of 500,000 cells/mL into a 24-well tissue culture dish. Plated cells were allowed to proliferate for at least 48 hours before loading with 2 μCi/mL of ^86 Rb^+ (35 Ci/mmol) overnigh at 37° C. The ^86 Rb^+ efflux assays were performed according to previously published protocols (Lukas, 1993) except serum-free Dulbecco's Modified Eagle's Medium was used during the ^86 Rb^+ loading, rinsing, and agonist-induced efflux steps.
Cells of the K177 cell line, resulting from stable transfection of the human embryonic kidney (HEK) 293 cell line with the cDNA of the α4 and β2 nicotinic acetylcholine subunits (Gopalakrishnan, et al, J. Pharmacol. Expt. Ther. 1996, 276, 289-297), were maintained in a log phase of growth according to established procedures (Gopalakrishnan, et al., loc. cit.). The cells were plated onto poly-lysine coated 24-well Costar plates (Cambridge, Mass.) at a density of 250,000 cells/well. When confluent, the cells were loaded with ^86 Rb^+ and agonist-induced efflux was assessed as reported above for IMR-32 cells.
Maximal responses (reported as percent relative to the response elicited by 100 μM (S)-nicotine) are shown for selected compounds of the invention. The inhibition data (given for other selected compounds) reflect inhibition of the efflux elicited by 100 μM (S)-nicotine at the indicated concentration. […] This finding is in agreement with the results of others who have linked dopamine release, which is dependent upon the ion flux in synaptic transmission, to binding at nicotinic receptors (cf., for example, Lippiello and Caldwell, U.S. Pat. No. 5,242,935, issued Sept. 7, 1993; Caldwell and Lippielo, U.S. Pat. No. 5,248,690, issued Sept. 28, 1993; and Wonnacott et al., Prog. Brain Res; 79: 157-163 (1989)).

[3] = target: neuronal nicotinic acetylcholine receptors; experiment: [3H]-cytisine ligand-receptor binding assay (crude synaptic membranes from whole rat brain); settings: for binding to the nicotinic acetylcholine receptor (in words): preferred compounds
Description: For the purpose of identifying compounds as nicotinic acetylcholinergic agents which are capable of interacting with neuronal nicotinic acetylcholine receptors in the brain, a ligand-receptor binding assay was carried out as the initial screen. Compounds of the present invention were effective at interacting with neuronal nicotinic acetylcholine receptors as assayed for their ability to displace radioligand from neuronal nicotinic acetylcholine receptors labeled with [^3 H]-cytisine ([^3 H]-CYT).
A. Protocol For Determination of Nicotinic Acetylcholine Receptor Binding Potencies of Ligands
Binding of [^3 H]-CYT to nicotinic acetylcholine receptors was accomplished using crude synaptic membrane preparations from whole rat brain (Pabreza et al., Molecular Pharmacol., 1990, 39:9). Washed membranes were stored at -80° C. prior to use. Frozen aliquots were slowly thawed and resuspended in 20 volumes of buffer (containing: 120 mM NaCl, 5 mM KCl, 2 mM MgCl2, 2 mM CaCl2 and 50 mM Tris-Cl, pH 7.4 @4° C.). After centrifuging at 20,000×g for 15 minutes, the pellets were resuspended in 30 volumes of buffer. Homogenate (containing 125-150 μg protein) was added to triplicate tubes containing concentrations of test compound and [^3 H]-CYT (1.25 nM) in a final volume of 500 μL. Samples were incubated for 60 minutes at 4° C., then rapidly filtered through Whatman GF/B filters presoaked in 0.5% polyethylimine using 3×4 mL of ice-cold buffer. The filters were counted in 4 mL of Ecolume® (ICN). Nonspecific binding was determined in the presence of 10 μM (-)-nicotine and values were expressed as a percentage of total binding.

[4] = K177, Table 1, maximal response, percent relative to 100 μM (S)-nicotine, read-out: K177 % max
[5] = Table 1, [3H]-cytisine 1.25 nM, 4° C., 60 min, Ki by Cheng and Prusoff, read-out: [^3 H]-Cyt Binding
[6] = Table 1, inhibition of efflux elicited by 100 μM (S)-nicotine
[7] = K177, Table 1, inhibition of efflux elicited by 100 μM (S)-nicotine, 10 μM, read-out: K177 % Inhibition @ 10 μM
[8] = Table 2, [3H]-cytisine binding, read-out: Binding

T1 sequence (P43681 29-627 limits assumed): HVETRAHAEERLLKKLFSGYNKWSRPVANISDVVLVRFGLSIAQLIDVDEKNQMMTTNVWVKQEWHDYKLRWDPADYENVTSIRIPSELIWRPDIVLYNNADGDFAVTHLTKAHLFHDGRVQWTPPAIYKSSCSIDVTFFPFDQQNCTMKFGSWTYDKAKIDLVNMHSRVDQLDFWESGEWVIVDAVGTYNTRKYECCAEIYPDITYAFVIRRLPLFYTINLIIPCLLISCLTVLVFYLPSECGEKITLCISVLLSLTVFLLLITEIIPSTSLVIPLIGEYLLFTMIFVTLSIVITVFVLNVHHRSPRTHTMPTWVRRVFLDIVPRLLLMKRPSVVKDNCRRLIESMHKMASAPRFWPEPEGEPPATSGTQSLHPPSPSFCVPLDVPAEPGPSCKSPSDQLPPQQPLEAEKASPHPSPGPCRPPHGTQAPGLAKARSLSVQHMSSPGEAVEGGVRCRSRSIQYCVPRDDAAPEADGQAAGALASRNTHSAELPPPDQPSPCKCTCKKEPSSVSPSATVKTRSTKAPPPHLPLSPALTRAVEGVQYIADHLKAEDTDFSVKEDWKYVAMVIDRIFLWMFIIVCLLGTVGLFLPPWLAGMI
T1 sequence (P17787 26-502): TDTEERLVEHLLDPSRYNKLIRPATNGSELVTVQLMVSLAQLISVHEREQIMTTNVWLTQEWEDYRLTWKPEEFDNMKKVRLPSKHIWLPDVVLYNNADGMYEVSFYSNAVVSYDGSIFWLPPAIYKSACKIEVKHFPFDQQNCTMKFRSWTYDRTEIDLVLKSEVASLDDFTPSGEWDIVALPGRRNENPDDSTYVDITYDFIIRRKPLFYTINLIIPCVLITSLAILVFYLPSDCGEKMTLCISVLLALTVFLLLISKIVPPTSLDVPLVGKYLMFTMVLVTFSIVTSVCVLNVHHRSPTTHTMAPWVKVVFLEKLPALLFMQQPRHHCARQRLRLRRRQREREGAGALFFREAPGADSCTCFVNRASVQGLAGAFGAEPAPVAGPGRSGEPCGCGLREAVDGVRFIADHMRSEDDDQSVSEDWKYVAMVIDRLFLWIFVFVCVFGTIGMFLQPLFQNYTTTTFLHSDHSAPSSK

| Structure (SMILES) | IMR-32 % max ([1]; Table 1) | Emax [2, 4] | Ki [3, 5] | IMR-32 % Inhibition @ 10 μM [1, 6] | other results |
| --- | --- | --- | --- | --- | --- |
| c1cnc2cc([C@H]3C[C@@H]4CC[C@H]3N4)oc2c1 (relative stereo) [Example 52, (±)-2-(7-aza-2-exo-bicyclo[2.2.1]heptyl)furo[3,2-b]pyridine dihydrochloride] | 69% | 36% | 0.86 nM | – | – |
| CN1CCC[C@H]1c1cc2ncccc2o1.Cl.Cl [Example 1, 2-(1-methyl-2-(S)-pyrrolidinyl)furo[3,2-b]pyridine dihydrochloride] | 7% | 79% | 2.7 nM | – | IMR-32 % Inhibition @ (30 μM) ([1]; Table 1, inhibition of efflux elicited by 100 μM (S)-nicotine, 30 μM): 16% |
| Cl.Cl.c1cnc2cc([C@@H]3CCCN3)oc2c1 [Example 2, 2-(2-(S)-pyrrolidinyl)furo[3,2-b]pyridine dihydrochloride] | – | 0% | 76 nM | 24% | – |
| Cl.Cl.c1cnc2cc([C@H]3CCCN3)oc2c1 [Example 3, 2-(2-(R)-pyrrolidinyl)furo[3,2-b]pyridine dihydrochloride] | 58% | 34% | 4.1 nM | – | – |
| CN1CCC[C@@H]1c1cc2ncccc2o1 [Example 4, 2-(1-methyl-2-(R)-pyrrolidinyl)furo[3,2-b]pyridine dihydrochloride] | – | 63% | 17.5 nM | – | – |
| Cc1ccc2oc([C@@H]3CCCN3C)cc2n1.Cl.Cl [Example 6, 2-(1-methyl-2-(S)-pyrrolidinyl)-5-methylfuro[3,2-b]pyridine dihydrochloride] | – | 68% | 4.7 nM | 4% | – |
| CN1CCC[C@H]1c1cc2ncc(Cl)cc2o1 [Example 8, 6-chloro-2-(1-methyl-2-(S)-pyrrolidinyl)-furo[3,2-b]pyridinedihydrochloride] | 0% | – | 27 nM | 9% | inhibition at 10 µM ([2]; K177, read-out: K177 % Inhibition @ 10 μM): 45%; Emax ([2]; K177, read-out: K177 % max): 3% |
| CN1CCC[C@H]1c1cc2nc(Cl)ccc2o1 [Example 12, 5-chloro-2-(1-methyl-2-(S)-pyrrolidinyl)-furo[3,2-b]pyridinehydrochloride] | 11% | 41% | 4.1 nM | – | – |
| Cl.c1cnc2cc(C34CCCN3CCC4)oc2c1 [Example 15, 2-(Hexahydro-1H-7a-pyrrolizinyl)furo[3,2-b]pyridine hydrochloride] | 43% | 9% | 0.45 nM | – | binding to the nicotinic acetylcholine receptor (in words) [3]: most potent binders |
| Cc1ccc2oc(C34CCCN3CCC4)cc2n1 [Example 16, 2-(Hexahydro-1H-7a-pyrrolizinyl)-5-methylfuro[3,2-b]pyridinedihydrochloride] | 0% | 109% | 5.8 nM | 10% | – |
| c1cnc2cc(C34CCCN3CCC4)sc2c1 [Example 24, 2-(Hexahydro-1H-7a-pyrrolizinyl)thieno[3,2-b]pyridine hydrochloride] | – | 14% | 2 nM | – | inhibition at 10 µM [2, 7]: 60% |
| CN1CCC[C@H]1c1cc2nc(Cl)c(Cl)cc2o1.Cl [Example 26, 5,6-Dichloro-2-(1-methyl-2-(S)-pyrrolidinyl)furo[3,2-b]pyridine hydrochloride] | 7% | 6% | 0.66 nM | 38% | inhibition at 10 µM [2, 7]: 53%; binding to the nicotinic acetylcholine receptor (in words) [3]: most potent binders |
| Brc1ccc2oc([C@@H]3CCCN3)cc2n1.Cl [Example 28, 5-bromo-2-(2-(S)-parrolidinvy)-furo[3,2-b]pyridine hydrochloride] | – | – | 4.8 nM | – | K177 % max ([2]; Table 1, maximal response, percent relative to 100 μM (S)-nicotine): 20% |
| Cc1ccc2oc([C@H]3CCCN3)cc2n1.Cl [Example 29, 5-methyl-2-(2-(R)-pyrrolidinyl)-furo[3,2-b]pyridine hydrochloride] | – | 0% | 6.8 nM | 0% | inhibition at 10 µM [2, 7]: 28% |
| Clc1cnc2cc([C@H]3CCCN3)oc2c1 [Example 31, 6-chloro-2-(2-(R)-pyrrolidinyl)-furo[3,2-b]pyridine hydrochloride] | – | 13% | 9.8 nM | – | inhibition at 10 µM [2, 7]: 41% |
| Brc1ccc2oc([C@H]3CCCN3)cc2n1 [Example 33, 5-bromo-2-(2-(R)-pyrrolidinyl)-furo[3,2-b]pyridine hydrochloride] | 0% | 0% | – | 8% | – |
| Clc1ccc2oc([C@H]3CCCN3)cc2n1 [Example 35, 5-chloro-2-(2-(R)-pyrrolidinyl)-furo[3,2-b]pyridine hydrochloride] | – | 61% | 1.1 nM | – | – |
| Cl.Clc1cc2oc(C34CCCN3CCC4)cc2nc1Cl [Example 38, 2-(Hexahydro-1H-7a-pyrrolizinyl)-5,6-dichlorofuro[3,2-b]pyridine hydrochloride] | 12% | 0% | 0.33 nM | 10% | – |
| Cl.Clc1cc2oc([C@H]3CCCN3)cc2nc1Cl [Example 39, 5,6-Dichloro-2-(2-(R)-pyrrolidinyl)furo[3,2-b]pyridine hydrochloride] | 4% | 39% | 1.1 nM | 25% | – |
| CN1[C@@H]2CC[C@@H](C2)[C@H]1c1cc2ncccc2o1 [Example 42, 2-((1R,4S)-2-aza-3-(S)-bicyclo[2.2.1]heptyl)-2-methylfuro[3,2-b]pyridil dihydrochloride] | 24% | 29% | 4.7 nM | – | – |
| CN1CCC[C@H]1c1cc2nc(Cl)c(Br)cc2o1.Cl.Cl [Example 48, 6-bromo-5-chloro-2-(1-methyl-2-(S)-pyrrolidinyl)furo[3,2-b]pyridine dihydrochloride] | 6% | 0% | 1.3 nM | 0% | – |
| Clc1nc2cc([C@H]3CCCN3)oc2cc1-c1ccccc1 [Example 55, 2-(2-(R)-pyrrolidinyl)-5-chloro-6-phenyl furo[3,2-b]pyridinehydrochloride] | – | – | – | – | IMR-32 % max ([1]; Table 2): 32%; Ki [3, 8]: 0.16 nM; in vitro binding (in words) ([3]; Tables 1 and 2): potent in vitro binding; binding to the nicotinic acetylcholine receptor (in words) [3]: most potent binders |
| Cl.Nc1cccc(-c2cc3oc([C@H]4CCCN4)cc3nc2Cl)c1 [Example 57, 6-(3-aminophenyl)-5-chloro-2-(2-(R)-pyrrolidinyl)furo[3,2-b]pyridine hydrochloride] | – | – | – | – | IMR-32 % max ([1]; Table 2): 22%; Ki [3, 8]: 0.83 nM |
